Measurements as given in US20150291598A1 (NOVARTIS AG, priority 2012, published 2015).

Tested on: P. falciparum (NF54 or 3D7 strain)
Assay: Assay for P. falciparum proliferation in infected human blood cells (SYBR Green)
Type: cell-based, Plasmodium falciparum
Conditions: Plasmodium falciparum, 3D7|NF54, Erythrocyte, in Homo sapiens, 72 h, NF54 or 3D7 infected human erythrocytes, 72 hours; read-out: EC50 (nM), inhibitory efficacy in delaying P. falciparum proliferation in infected human blood cells
Method in brief: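 NF54 or 3D7 parasites in O+ human erythrocytes at 2.5% hematocrit and 0.3% parasitemia final, exposed to compounds 72 h at 37 °C under 93% N2/4% CO2/3% O2.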

| Structure (SMILES) | EC50 |
| --- | --- |
| CN(Cc1cn2c(-c3ccc(-n4cccn4)cc3)cnc2cn1)c1ccc(F)cc1 [Compound 10] | 189 nM |

Same assay, conditions: Plasmodium falciparum, Erythrocyte, 72 h, NF54 or 3D7 infected human erythrocytes, 72 hours; read-out: EC50 (nM), inhibitory efficacy in delaying P. falciparum proliferation in infected human blood cells

| Structure (SMILES) | EC50 |
| --- | --- |
| CN(C(=O)c1cn2c(-c3ccc(C(F)(F)F)cc3)cnc2cn1)c1ccc(OC(F)(F)F)cc1 [Compound 173, N-methyl-N-[4-(trifluoromethoxy)phenyl]-3-[4-(trifluoromethyl)phenyl]imidazo[1,2-a]pyrazine-6-carboxamide] | 4250 nM |
| O=C(c1cn2c(-c3ccc(C(F)(F)F)cc3)cnc2cn1)N1CCc2cc(F)ccc21 [Compound 176, 5-fluoro-1-({3-[4-(trifluoromethyl)phenyl]imidazo[1,2-a]pyrazin-6-yl}carbonyl)-2,3-dihydro-1H-indole] | > 10000 nM |
| CN(C(=O)c1cn2c(-c3ccc(OC(F)(F)F)cc3)cnc2cn1)c1ccc(C#N)cc1 [Compound 116, -(4-cyanophenyl)-N-methyl-3-[4-(trifluoromethoxy)phenyl]imidazo[1,2-a]pyrazine-6-carboxamide] | 230 nM |
| CC(=O)Nc1ccc(-c2cnc3cnc(C(=O)N(C)c4ccc(C#N)cc4)cn23)cc1 [Compound 485, N-(4-cyanophenyl)-3-(4-acetamidophenyl)-N-methylimidazo[1,2-a]pyrazine-6-carboxamide] | 54 nM |
| CN(C(=O)c1cn2c(-c3ccc(C(F)(F)F)cc3)cnc2cn1)c1ccc(C#N)cc1F [Compound 293, N-(4-cyano-2-fluorophenyl)-N-methyl-3-[4-(trifluoromethyl)phenyl]imidazo[1,2-a]pyrazine-6-carboxamide] | 76 nM |
| N#Cc1ccc2c(c1)OCCN2C(=O)c1cn2c(-c3ccc(C(F)(F)F)cc3)cnc2cn1 [Compound 315, 4-({3-[4-(trifluoromethyl)phenyl]imidazo[1,2-a]pyrazin-6-yl}carbonyl)-3,4-dihydro-2H-1,4-benzoxazine-7-carbonitrile] | 2420 nM |
| CN(C(=O)c1cn2c(-c3ccc(C(F)(F)F)cc3)cnc2cn1)c1cnc(Br)cn1 [Compound 97, N-(5-bromopyrazin-2-yl)-N-methyl-3-[4-(trifluoromethyl)phenyl]imidazo[1,2-a]pyrazine-6-carboxamide] | 4510 nM |
| CN(C(=O)c1cncnc1)c1cn2c(-c3ccc(C(F)(F)F)cc3)cnc2cn1 [Compound 498, N-methyl-N-{3-[4-(trifluoromethyl)phenyl]imidazo[1,2-a]pyrazin-6-yl}pyrimidine-5-carboxamide] | 5690 nM |
| CN(C(=O)c1cn2c(-c3ccc(C(F)(F)F)cc3)cnc2cn1)c1ccc(OC(F)F)cc1 [Compound 50, N-[4-(difluoromethoxy)phenyl]-N-methyl-3-[4-(trifluoromethyl)phenyl]imidazo[1,2-a]pyrazine-6-carboxamide] | 828 nM |
| CN(C(=O)c1cn2c(-c3ccc(C(F)(F)F)nc3)cnc2cn1)c1ccc(Cl)nc1 [Compound 413, N-(6-chloropyridin-3-yl)-N-methyl-3-[6-(trifluoromethyl)pyridin-3-yl]imidazo[1,2-a]pyrazine-6-carboxamide] | 7400 nM |
| Cc1ccc(N(C)Cc2cn3c(-c4ccc(C(F)(F)F)cc4)cnc3cn2)nc1 [Compound 287, N,5-dimethyl-N-({3-[4-(trifluoromethyl)phenyl]imidazo[1,2-a]pyrazin-6-yl}methyl)pyridin-2-amine] | 972 nM |
| CN(C(=O)c1cn2c(-c3ccc(C(F)(F)F)cc3)cnc2cn1)c1ncc(Cl)cc1F [Compound 6, N-(5-chloro-3-fluoropyridin-2-yl)-N-methyl-3-(4-(trifluoromethyl)phenyl)imidazo[1,2-a]pyrazine-6-carboxamide] | 619 nM |
| CN(C(=O)c1cn2c(-c3ccc(C(F)(F)F)cc3)cnc2cn1)c1ccccc1OC(F)(F)F [Compound 40, N-methyl-N-[2-(trifluoromethoxy)phenyl]-3-[4-(trifluoromethyl)phenyl]imidazo[1,2-a]pyrazine-6-carboxamide] | 3320 nM |
| Cc1ccc(-c2cnc3cnc(C(=O)N(C)c4ccc(C#N)cc4)cn23)nc1 [Compound 19, N-(4-cyanophenyl)-N-methyl-3-(5-methylpyridin-2-yl)imidazo[1,2-a]pyrazine-6-carboxamide] | 280 nM |
| CN(C(=O)c1cn2c(-c3ccc(C(=O)NC4CC4)cc3)cnc2cn1)c1ccc(C#N)cc1 [Compound 158, N-(4-cyanophenyl)-3-[4-(cyclopropylcarbamoyl)phenyl]-N-methylimidazo[1,2-a]pyrazine-6-carboxamide] | 2050 nM |
| CC(C)[C@@H](N)C(=O)Nc1ccc(-c2cnc3cnc(C(=O)N(C)c4ccc(C#N)cc4)cn23)cc1 [Compound 286, 3-{4-[(2R)-2-amino-3-methylbutanamido]phenyl}-N-(4-cyanophenyl)-N-methylimidazo[1,2-a]pyrazine-6-carboxamide] | 402 nM |
| CN(C(=O)c1cn2c(-c3ccc(C#N)nc3)cnc2cn1)c1ccc(C#N)cc1 [Compound 401, N-(4-cyanophenyl)-3-(6-cyanopyridin-3-yl)-N-methylimidazo[1,2-a]pyrazine-6-carboxamide] | > 10000 nM |

| Structure (SMILES) | EC50 |
| --- | --- |
| CN(C(=O)c1cn2c(-c3ccc(C(F)(F)F)cc3)cnc2cn1)c1nccn1C [Compound 174, N-methyl-N-(1-methyl-1H-imidazol-2-yl)-3-[4-(trifluoromethyl)phenyl]imidazo[1,2-a]pyrazine-6-carboxamide] | 4750 nM |
| CN(C(=O)c1cn2c(-c3ccc4c(ccn4C)c3)cnc2cn1)c1ccc(Cl)cc1 [Compound 141, N-(4-chlorophenyl)-N-methyl-3-(1-methyl-1H-indol-5-yl)imidazo[1,2-a]pyrazine-6-carboxamide] | 433 nM |
| COC(=O)Nc1ccc(-c2cnc3cnc(C(=O)N(C)c4ccc(Cl)nc4)cn23)cc1 [Compound 245, methyl N-(4-{6-[(6-chloropyridin-3-yl)(methyl)carbamoyl]imidazo[1,2-a]pyrazin-3-yl}phenyl)carbamate] | 226 nM |
| CN(C(=O)c1cn2c(-c3ccc4c(c3)CC(=O)N4)cnc2cn1)c1ccc(C#N)cc1 [Compound 204, N-(4-cyanophenyl)-N-methyl-3-(2-oxo-2,3-dihydro-1H-indol-5-yl)imidazo[1,2-a]pyrazine-6-carboxamide] | 6510 nM |
| CN(C(=O)c1cn2c(-c3ccc(C(F)(F)F)cc3)cnc2cn1)c1ccc(N2CCOCC2)cn1 [Compound 321, N-methyl-N-[5-(morpholin-4-yl)pyridin-2-yl]-3-[4-(trifluoromethyl)phenyl]imidazo[1,2-a]pyrazine-6-carboxamide] | 2260 nM |
| CN(C(=O)c1cn2c(-c3ccc(-c4ccnn4C)cc3)cnc2cn1)c1ccc(C#N)cc1 [Compound 208, N-(4-cyanophenyl)-N-methyl-3-[4-(1-methyl-1H-pyrazol-5-yl)phenyl]imidazo[1,2-a]pyrazine-6-carboxamide] | 724 nM |
| CN(C(=O)c1cn2c(-c3ccc4occc4c3)cnc2cn1)c1ccc(Cl)nc1 [Compound 325, 3-(1-benzofuran-5-yl)-N-(6-chloropyridin-3-yl)-N-methylimidazo[1,2-a]pyrazine-6-carboxamide] | 4140 nM |
| CN(C(=O)c1cn2c(-c3ccc4[nH]nc(N)c4c3)cnc2cn1)c1ccc(C#N)cc1 [Compound 396, 3-(3-amino-1H-indazol-5-yl)-N-(4-cyanophenyl)-N-methylimidazo[1,2-a]pyrazine-6-carboxamide] | 5720 nM |
| CCn1nccc1N(C)C(=O)c1cn2c(-c3ccc(C(F)(F)F)cc3)cnc2cn1 [Compound 298, N-(1-ethyl-1H-pyrazol-5-yl)-N-methyl-3-[4-(trifluoromethyl)phenyl]imidazo[1,2-a]pyrazine-6-carboxamide] | 1070 nM |
| CN(Cc1cn2c(-c3ccc(Cl)cc3)cnc2cn1)c1ccc(C#N)cc1 [Compound 4, 4-(((3-(4-chlorophenyl)imidazo[1,2-a]pyrazin-6-yl)methyl)(methyl)amino)benzonitrile] | 185 nM |
| CN(C)c1cccc(-c2cnc3cnc(C(=O)N(C)c4ccc(Cl)nc4)cn23)c1 [Compound 418, N-(6-chloropyridin-3-yl)-3-[3-(dimethylamino)phenyl]-N-methylimidazo[1,2-a]pyrazine-6-carboxamide] | > 10000 nM |
| CN(C(=O)c1cn2c(-c3ccc(S(=O)(=O)N(C)C)cc3)cnc2cn1)c1ccc(C#N)cc1 [Compound 197, N-(4-cyanophenyl)-3-[4-(dimethylsulfamoyl)phenyl]-N-methylimidazo[1,2-a]pyrazine-6-carboxamide] | > 10000 nM |
| CN(C(=O)c1cn2c(-c3ccc4[nH]cnc4c3)cnc2cn1)c1ccc(C#N)cc1 [Compound 143, 3-(1H-1,3-benzodiazol-5-yl)-N-(4-cyanophenyl)-N-methylimidazo[1,2-a]pyrazine-6-carboxamide] | 1560 nM |
| Cc1noc(-c2ccc(-c3cnc4cnc(C(=O)N(C)c5ccc(C#N)cc5)cn34)cc2)n1 [Compound 339, N-(4-cyanophenyl)-N-methyl-3-[4-(3-methyl-1,2,4-oxadiazol-5-yl)phenyl]imidazo[1,2-a]pyrazine-6-carboxamide] | 1260 nM |
| CN(C(=O)c1cn2c(-c3ccc(NS(C)(=O)=O)cc3)cnc2cn1)c1ccc(Cl)nc1 [Compound 419, N-(6-chloropyridin-3-yl)-3-(4-methanesulfonamidophenyl)-N-methylimidazo[1,2-a]pyrazine-6-carboxamide] | > 8270 nM |
| Cc1cc(Cl)ccc1-c1cnc2cnc(C(=O)N(C)c3ccc(C#N)cc3)cn12 [Compound 26, 3-(4-chloro-2-methylphenyl)-N-(4-cyanophenyl)-N-methylimidazo[1,2-a]pyrazine-6-carboxamide] | 8330 nM |
| CN(C)c1ccc(-c2cnc3cnc(C(=O)N(C)c4ccc(F)c(F)c4)cn23)cc1 [Compound 159, N-(3,4-difluorophenyl)-3-[4-(dimethylamino)phenyl]-N-methylimidazo[1,2-a]pyrazine-6-carboxamide] | 368 nM |
